The assay concerns the target T1, wild-type FLT3 phosphorylation in Baf3 FLT3 cells (Homo sapiens, UniProt P36888).
T1 sequence (P36888 27-993): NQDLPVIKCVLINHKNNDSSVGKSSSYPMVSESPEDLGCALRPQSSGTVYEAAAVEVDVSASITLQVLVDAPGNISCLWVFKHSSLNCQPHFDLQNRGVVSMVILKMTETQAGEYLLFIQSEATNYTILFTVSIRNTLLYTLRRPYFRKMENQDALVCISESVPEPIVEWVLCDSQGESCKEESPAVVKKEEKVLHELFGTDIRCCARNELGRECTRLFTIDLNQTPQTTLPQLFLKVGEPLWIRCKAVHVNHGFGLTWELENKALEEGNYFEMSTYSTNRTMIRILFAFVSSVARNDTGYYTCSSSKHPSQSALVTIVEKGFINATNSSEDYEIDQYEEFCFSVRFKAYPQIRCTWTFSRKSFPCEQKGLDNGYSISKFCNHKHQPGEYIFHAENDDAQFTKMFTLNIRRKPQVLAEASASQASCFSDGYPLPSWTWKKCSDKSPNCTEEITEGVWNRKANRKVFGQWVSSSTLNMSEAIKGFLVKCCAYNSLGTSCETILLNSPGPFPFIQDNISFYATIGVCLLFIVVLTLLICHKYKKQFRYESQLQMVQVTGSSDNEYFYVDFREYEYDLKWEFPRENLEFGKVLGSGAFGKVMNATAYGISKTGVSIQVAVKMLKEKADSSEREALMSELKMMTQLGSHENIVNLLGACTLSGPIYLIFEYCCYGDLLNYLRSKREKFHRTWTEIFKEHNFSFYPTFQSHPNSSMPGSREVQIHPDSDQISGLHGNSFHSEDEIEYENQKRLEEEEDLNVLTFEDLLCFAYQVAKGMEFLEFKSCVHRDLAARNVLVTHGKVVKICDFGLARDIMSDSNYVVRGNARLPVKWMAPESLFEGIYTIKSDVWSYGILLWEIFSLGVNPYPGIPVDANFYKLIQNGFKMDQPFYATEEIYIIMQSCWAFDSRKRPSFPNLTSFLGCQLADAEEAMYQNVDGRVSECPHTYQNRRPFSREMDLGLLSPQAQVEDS
The experiment in a line: Cell-Based FLT3 Receptor Elisa. Particulars: 1 hour compound, 100 ng/mL Flt ligand 10 min; uncertainty ±20%. Here is the method:
Cell-Based FLT3 Receptor Elisa
Specific cellular inhibition of FLT ligand-induced wild-type FLT3 phosphorylation was measured in the following manner: Baf3 FLT3 cells overexpressing the FLT3 receptor were obtained from Dr. Michael Heinrich (Oregon Health and Sciences University). The Baf3 FLT3 cell lines were created by stable transfection of parental Baf3 cells (a murine B cell lymphoma line dependent on the cytokine IL-3 for growth) with wild-type FLT3. Cells were selected for their ability to grow in the absence of IL-3 and in the presence of FLT3 ligand.
Baf3 cells were maintained in RPMI 1640 with 10% FBS, penn/strep and 10 ng/ml FLT ligand at 37° C., 5% CO2. To measure direct inhibition of the wild-type FLT3 receptor activity and phosphorylation a sandwich ELISA method was developed similar to those developed for other RTKs (see Sadick, M D, Sliwkowski, M X, Nuijens, A, Bald, L, Chiang, N, Lofgren, J A, Wong W L T. Analysis of Heregulin-Induced ErbB2 Phosphorylation with a High-Throughput Kinase Receptor Activation Enzyme-Linked Immunsorbent Assay, Analytical Biochemistry. 1996; 235:207-214 and Baumann C A, Zeng L, Donatelli R R, Maroney A C. Development of a quantitative, high-throughput cell-based enzyme-linked immunosorbent assay for detection of colony-stimulating factor-1 receptor tyrosine kinase inhibitors. J Biochem Biophys Methods. 2004; 60:69-79.). 200 μL of Baf3FLT3 cells (1×10^6/mL) were plated in 96 well dishes in RPMI 1640 with 0.5% serum and 0.01 ng/mL IL-3 for 16 hours prior to 1 hour compound or DMSO vehicle incubation. Cells were treated with 100 ng/mL Flt ligand (R&D Systems Cat# 308-FK) for 10 min. at 37° C. Cells were pelleted, washed and lysed in 100 ul lysis buffer (50 mM Hepes, 150 mM NaCl, 10% Glycerol, 1% Triton-X-100, 10 mM NaF, 1 mM EDTA, 1.5 mM MgCl2, 10 mM NaPyrophosphate) supplemented with phosphatase (Sigma Cat# P2850) and protease inhibitors (Sigma Cat #P8340). Lysates were cleared by centrifugation at 1000×g for 5 minutes at 4° C. Cell lysates were transferred to white wall 96 well microtiter (Costar #9018) plates coated with 50 ng/well anti-FLT3 antibody (Santa Cruz Cat# sc-480) and blocked with SeaBlock reagent (Pierce Cat#37527). Lysates were incubated at 4° C. for 2 hours. Plates were washed 3× with 200 ul/well PBS/0.1% Triton-X-100. Plates were then incubated with 1:8000 dilution of HRP-conjugated anti-phosphotyrosine antibody (Clone 4G10, Upstate Biotechnology Cat#16-105) for 1 hour at room temperature. Plates were washed 3× with 200 ul/well PBS/0.1% Triton-X-100. Signal detection with Super Signal Pico reagent (Pierce Cat#37070) was done according to manufacturer's instruction with a Berthold microplate luminometer. All data points are an average of triplicate samples. […] Inhibition and IC50 data analysis was done with GraphPad Prism using a non-linear regression fit with a multiparamater, sigmoidal dose-response (variable slope) equation.

Usually IC50 stands for the concentration needed to halve the response being measured. The low end stands for higher potency, the high end for lower potency. The compound `CO/N=C/c1c(N)ncnc1N1CCC(OC(=O)Nc2ccc(OC(C)C)cc2)CC1` [Number 1, (4-Isopropoxy-phenyl)-carbamic acid 1-[6-amino-5-(methoxyimino-methyl)-pyrimidin-4-yl]-piperidin-4-yl ester] yielded an IC50 of 204 nM.
In the case of `CCO/N=C/c1c(N)ncnc1N1CCC(OC(=O)Nc2ccc(OC(C)C)cc2)CC1` [Number 2, (4-Isopropoxy-phenyl)-carbamic acid 1-[6-amino-5-(ethoxyimino-methyl)-pyrimidin-4-yl]-piperidin-4-yl ester] it was 74 nM; in that of `CC(C)Oc1ccc(NC(=O)OC2CCN(c3ncnc(N)c3/C=N/OCCCN(C)C)CC2)cc1` [Number 4, (4-Isopropoxy-phenyl)-carbamic acid 1-{6-amino-5-[(3-dimethylamino-propoxyimino)-methyl]-pyrimidin-4-yl}-piperidin-4-yl ester], 345 nM.
In the case of `CO/N=C/c1c(N)ncnc1N1CCC(OC(=O)Nc2ccc(C(C)C)cc2)CC1` [Number 5, (4-Isopropyl-phenyl)-carbamic acid 1-[6-amino-5-(methoxyimino-methyl)-pyrimidin-4-yl]-piperidin-4-yl ester] it was 4 nM; in that of `CO/N=C/c1c(N)ncnc1N1CCC(CC(=O)Nc2ccc(C(C)C)cc2)C1` (stereo not shown) [Number 6, 2-{1-[6-Amino-5-(methoxyimino-methyl)-pyrimidin-4-yl]-pyrrolidin-3-yl}-N-(4-isopropyl-phenyl)-acetamide], 15 nM.
On to `CO/N=C/c1c(N)ncnc1N1CCC(CC(=O)Nc2ccc(C(C)C)cc2)CC1` [Number 7, 2-{1-[6-Amino-5-(methoxyimino-methyl)-pyrimidin-4-yl]-piperidin-4-yl}-N-(4-isopropyl-phenyl)-acetamide], for which the IC50 was found to be 169 nM.
The compound `CO/N=C/c1c(N)ncnc1N1CCC(NC(=O)Nc2ccc(OC(C)C)cc2)C1` (stereo not shown) [Number 8, 1-{1-[6-Amino-5-(methoxyimino-methyl)-pyrimidin-4-yl]-pyrrolidin-3-yl}-3-(4-isopropoxy-phenyl)-urea] gave an IC50 of 176 nM.
Under `CO/N=C/c1c(N)ncnc1N1CCC(NC(=O)Nc2ccc(N3CCCCC3)cc2)C1` (stereo not shown) [Number 9, 1-{1-[6-Amino-5-(methoxyimino-methyl)-pyrimidin-4-yl]-pyrrolidin-3-yl}-3-(4-piperidin-1-yl-phenyl)-urea] stands 127 nM; under `CO/N=C/c1c(N)ncnc1N1CCC(NC(=O)Nc2ccc(N3CCOCC3)cc2)C1` (stereo not shown) [Number 10, 1-{1-[6-Amino-5-(methoxyimino-methyl)-pyrimidin-4-yl]-pyrrolidin-3-yl}-3-(4-morpholin-4-yl-phenyl)-urea], 1300 nM; under `CO/N=C/c1c(N)ncnc1N1CCC(NC(=O)Nc2ccc(OC3CCC3)nc2)C1` (stereo not shown) [Number 11, 1-{1-[6-Amino-5-(methoxyimino-methyl)-pyrimidin-4-yl]-pyrrolidin-3-yl}-3-(6-cyclobutoxy-pyridin-3-yl)-urea], 229 nM.
Under `CO/N=C/c1c(N)ncnc1N1CCC(NC(=O)Nc2ccc(OC(C)C)cc2)CC1` [Number 12, 1-{1-[6-Amino-5-(methoxyimino-methyl)-pyrimidin-4-yl]-piperidin-4-yl}-3-(4-isopropoxy-phenyl)-urea] stands 217 nM.
Under `CO/N=C/c1c(N)ncnc1N1CCC(NC(=O)Nc2ccc(N3CCCCC3)cc2)CC1` [Number 13, 1-{1-[6-Amino-5-(methoxyimino-methyl)-pyrimidin-4-yl]-piperidin-4-yl}-3-(4-piperidin-1-yl-phenyl)-urea] stands 468 nM.
The compound `CO/N=C/c1c(N)ncnc1N1CCC(NC(=O)Nc2ccc(N3CCOCC3)cc2)CC1` [Number 14, 1-{1-[6-Amino-5-(methoxyimino-methyl)-pyrimidin-4-yl]-piperidin-4-yl}-3-(4-morpholin-4-yl-phenyl)-urea] came in with an IC50 of 292 nM.
In the case of `CO/N=C/c1c(N)ncnc1N1CCC(NC(=O)Nc2ccc(OC3CCC3)nc2)CC1` [Number 15, 1-{1-[6-Amino-5-(methoxyimino-methyl)-pyrimidin-4-yl]-piperidin-4-yl}-3-(6-cyclobutoxy-pyridin-3-yl)-urea] it was 195 nM; in that of `CO/N=C/c1c(N)ncnc1N1CCC(NC(=O)Nc2ccc(C3CCCCC3)cc2)C1` (stereo not shown) [Number 17, 1-{1-[6-Amino-5-(methoxyimino-methyl)-pyrimidin-4-yl]-pyrrolidin-3-yl}-3-(4-cyclohexyl-phenyl)-urea], 299 nM.
Under `CO/N=C/c1c(N)ncnc1N1CCC(NC(=O)Nc2ccc(Cl)cc2)C1` (stereo not shown) [Number 18, 1-{1-[6-Amino-5-(methoxyimino-methyl)-pyrimidin-4-yl]-pyrrolidin-3-yl}-3-(4-chloro-phenyl)-urea] stands 309 nM; under `CO/N=C/c1c(N)ncnc1N1CCC(NC(=O)Nc2ccc(Oc3ccccc3)cc2)C1` (stereo not shown) [Number 19, 1-{1-[6-Amino-5-(methoxyimino-methyl)-pyrimidin-4-yl]-pyrrolidin-3-yl}-3-(4-phenoxy-phenyl)-urea], 134 nM; under `CO/N=C/c1c(N)ncnc1N1CCC(NC(=O)Nc2ccc(N3CCCC3)cc2)C1` (stereo not shown) [Number 20, 1-{1-[6-Amino-5-(methoxyimino-methyl)-pyrimidin-4-yl]-pyrrolidin-3-yl}-3-(4-pyrrolidin-1-yl-phenyl)-urea], 299 nM.
In turn, `CO/N=C/c1c(N)ncnc1N1CCC(NC(=O)Nc2ccc(OC3CCCC3)nc2)C1` (stereo not shown) [Number 21, 1-{1-[6-Amino-5-(methoxyimino-methyl)-pyrimidin-4-yl]-pyrrolidin-3-yl}-3-(6-cyclopentyloxy-pyridin-3-yl)-urea] registered an IC50 of 99 nM.
Under `CO/N=C/c1c(N)ncnc1N1CCC(NC(=O)Nc2ccc(C3CCCCC3)cc2)CC1` [Number 22, 1-{1-[6-Amino-5-(methoxyimino-methyl)-pyrimidin-4-yl]-piperidin-4-yl}-3-(4-cyclohexyl-phenyl)-urea] stands 40 nM.
In the case of `CO/N=C/c1c(N)ncnc1N1CCC(NC(=O)Nc2ccc(OC3CCCC3)nc2)CC1` [Number 23, 1-{1-[6-Amino-5-(methoxyimino-methyl)-pyrimidin-4-yl]-piperidin-4-yl}-3-(6-cyclopentyloxy-pyridin-3-yl)-urea] it was 35 nM; in that of `CO/N=C/c1c(N)ncnc1N1CCC(NC(=O)Nc2ccc(Cl)cc2)CC1` [Number 25, 1-{1-[6-Amino-5-(methoxyimino-methyl)-pyrimidin-4-yl]-piperidin-4-yl}-3-(4-chloro-phenyl)-urea], 78 nM.

For the origin of these results see patent publication US20060281700A1, “SYNERGISTIC MODULATION OF FLT3 KINASE USING AMINOPYRIMIDINES KINASE MODULATORS” (priority 2005, published 2006).
